The text below walks through data of patent US5624917A, “Method of inhibiting squalene synthetase” (Takeda Chemical Industries, Ltd., priority 1991, dated 1997).

In general, IC50 refers to the concentration at which inhibition is half-maximal.

One assay concerns cholesterol biosynthesis. Kind of assay: Cholesterol biosynthesis inhibitory activity: cholesterol synthesis from [2-14C] acetic acid in rat liver slices. Format: cell-based. The note with it: for effect on cholesterol synthesis from [2-14C] acetic acid (in words): 20 μM; for activity at 20 µM: 37° C., 2 hours, No addition = 100 ± 0. As to the method: (§1) Squalene synthetase inhibitory activity and cholesterol biosynthesis inhibitory activity of the compounds used in the present invention were determined by the following method.
Determination of cholesterol biosynthesis Inhibitory activity
The liver was excised from Sprague-Dawley rat (6 weeks old, male) under full feeding and sliced into 500 μm in thickness. The slices of liver (150-200 mg) and KHB buffer solution (1 ml) containing 0.5 μCi [2-^14 C] acetic acid and various concentrations of test compounds were incubated at 37° C. for 2 hours. Cholesterol was extracted from the reaction mixture. The amount of cholesterol synthesized from the labeled acetic acid was measured, and the inhibitory ratio was calculated in comparison with the synthesized amount in the case of no addition of the test compounds.
The effect of Compound No. 22 (Example 39 described in Japanese Patent Application No. 3-151484) (added in 20 μM), 67, 74 and 75 on cholesterol synthesis from [2-^14 C] acetic acid in assay using liver slices of rats was observed.

In assay [1] the target is T1, squalene synthetase (Rattus norvegicus, UniProt Q02769).
T1 construct: from tissue; host or cells: liver of male SD rats (microsome fraction)
T1 sequence (Q02769 1-416): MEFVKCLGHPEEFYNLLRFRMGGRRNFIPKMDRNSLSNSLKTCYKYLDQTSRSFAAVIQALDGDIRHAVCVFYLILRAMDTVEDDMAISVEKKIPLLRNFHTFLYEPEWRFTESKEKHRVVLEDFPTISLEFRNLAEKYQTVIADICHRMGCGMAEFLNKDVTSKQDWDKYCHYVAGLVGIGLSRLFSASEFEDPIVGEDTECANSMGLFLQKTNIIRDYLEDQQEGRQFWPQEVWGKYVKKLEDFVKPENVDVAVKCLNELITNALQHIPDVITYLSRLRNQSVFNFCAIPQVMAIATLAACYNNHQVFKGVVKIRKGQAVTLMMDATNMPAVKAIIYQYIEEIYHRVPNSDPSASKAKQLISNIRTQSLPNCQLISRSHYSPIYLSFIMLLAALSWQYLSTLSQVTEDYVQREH
In words: Squalene synthetase inhibitory activity, rat enzyme (rat liver microsome fraction). Format: biochemical. As to conditions: 5 μM [1-3H]farnesylpyrophosphoric acid, pH 7.4, 37° C., 45 minutes, read-out: IC50, squalene synthetase inhibitory activity, Rat enzyme. Here is the method:
as §1
(§2) Determination of squalene synthetase inhibitory activity
(§3) The squalene synthetase inhibitory activity was determined as follows by using the enzyme solutions shown in Experiments 1 and 2 below.
(§4) Each enzyme solution (Protein: 0.8 μg) prepared in Experiments 1 and 2 was added to a solution (total amount: 50 μl) containing 5 μM[1-^3 H]farnesylpyrophosphoric acid (Specific activity 25 μCi/μmole), 1 mM NADPH, 5 mM MgCl2, 6 mM glutathione, 100 mM potassium phosphate buffer (pH 7.4) and a drug to be tested (which was added as a solution thereof in water or DMSO). The mixture was allowed to react at 37° C. for 45 minutes. A mixture (150 μl) of chloroform and methanol (1:2) was added to stop the reaction. Then, chloroform (50 μl) and 3N sodium hydroxide solution (50 μl) were added. The chloroform layer (under layer, 50 μl) containing the reaction products in which the major component was squalene was mixed with toluene liquid scintillator (3 ml). The radioactivity was measured with a liquid scintillation counter.
(§5) The squalene synthetase inhibitory activity is indicated by the concentration (IC50, molarity(M)) which inhibits the radioactivity incorporated into the chloroform layer by 50%.
Preparation of rat enzyme
SD-Male rats (6 weeks old) were bled to death followed by removal of liver. The liver (ca. 10 g) was washed with ice-cooled physiological saline, homogenized in an ice-cooled buffer solution (15 ml) [100 mM potassium phosphate (pH 7.4), 15 mM nicotinamide, 2 mM MgCl2 ] and centrifuged at 10,000×g for 20 minutes (4° C.). The resulting supernatant was further centrifuged at 105,000×g for 90 minutes (4° C.). Then, the deposit was suspended in an ice-cooled 100 mM potassium phosphate buffer solution (pH 7.4) and centrifuged at 105,000×g for 90 minutes (4° C.) again. The deposit (microsome fraction) thus obtained was suspended in an ice-cooled 100 mM potassium phosphate buffer solution (pH 7.4) so that the protein concentration became about 40 mg/ml (measured with BCA Protein Assay Kit (Pias)), and the suspension was used as the enzyme solution.
A general note: Liver microsomes are vesicles of endoplasmic reticulum, rich in cytochrome P450 enzymes.

For assay [2], the target named is T2, squalene synthetase (Homo sapiens, UniProt P37268).
T2 construct: From the resulting sonicate, microsome fraction was obtained according to the same manner as that described in Experiment 1; endogenous in cells; host or cells: HepG2 human hepatoma cells (microsome fraction)
T2 sequence (P37268 1-417): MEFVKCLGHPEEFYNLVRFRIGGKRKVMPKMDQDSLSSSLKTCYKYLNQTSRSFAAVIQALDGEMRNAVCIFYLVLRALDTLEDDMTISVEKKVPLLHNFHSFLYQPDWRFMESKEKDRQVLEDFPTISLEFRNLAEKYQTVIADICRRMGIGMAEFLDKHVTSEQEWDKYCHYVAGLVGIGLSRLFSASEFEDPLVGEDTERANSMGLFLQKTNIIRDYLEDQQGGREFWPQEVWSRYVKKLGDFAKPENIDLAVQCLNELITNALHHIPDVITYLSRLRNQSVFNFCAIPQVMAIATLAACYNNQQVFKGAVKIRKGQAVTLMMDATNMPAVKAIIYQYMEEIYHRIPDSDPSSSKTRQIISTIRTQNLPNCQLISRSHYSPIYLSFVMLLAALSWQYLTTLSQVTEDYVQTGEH
In words: Squalene synthetase inhibitory activity, human enzyme (HepG2 microsome fraction). Format: biochemical. As to conditions: human hepatoma HepG2 microsome fraction; 5 μM [1-3H]farnesylpyrophosphoric acid, pH 7.4, 37° C., 45 minutes; read-out: IC50, squalene synthetase inhibitory activity, Human enzyme. Here is the method: as §1, §2, §3, §4, §5
Preparation of human enzyme
Cultivation was carried out on Dulbecco modified Eagle medium containing 10% bovine fetal serum in the presence of 5% CO2 at 37° C. The human hepatoma cells HepG2 (ca. 1×10^9 cells) were suspended in an ice-cooled buffer solution (10 ml) [100 mM potassium phosphate (pH 7.4), 30 mM nicotinamide, 2.5 mM MgCl2 ], and the cells were crushed by ultrasonication (30 seconds, twice). From the resulting sonicate, microsome fraction was obtained according to the same manner as that described in Experiment 1. This microsome fraction was suspended in an ice-cooled 100 mM potassium phosphate buffer solution (pH 7.4) so that the protein concentration became about 4 mg/ml, and this suspension was used as the enzyme liquid.

In the case of `O=P(O)(O)C(NCCCCCCSc1ccccc1)P(=O)(O)O` [compound 22], in the assay with cholesterol biosynthesis, the “effect on cholesterol synthesis from [2-14C] acetic acid (in words)” value (from here on “effect on cholesterol synthesis”) was “significant inhibition of cholesterol biosynthesis” and the activity at 20 µM is 52.9 ± 10%.

As to `COc1ccc(CSCCCCCCNC(P(=O)(O)O)P(=O)(O)O)cc1` [compound 67], the IC50 on squalene synthetase [1] was 8.7 nM; at squalene synthetase [2], 9.3 nM. Further, the “effect on cholesterol synthesis” value in the assay with cholesterol biosynthesis is given as “significant inhibition of cholesterol biosynthesis”. The compound also returned an activity at 20 µM in the assay on cholesterol biosynthesis of 43.4 ± 5%.

Regarding `O=P(O)(O)C(NCCCCCCSc1nccs1)P(=O)(O)O` [compound 74], in the assay with cholesterol biosynthesis, the “effect on cholesterol synthesis” value is “significant inhibition of cholesterol biosynthesis” and the activity at 20 µM was found to be 35.8 ± 0.8%.

For `Cc1nnc(SCCCCCCNC(P(=O)(O)O)P(=O)(O)O)s1` [compound 75], in the assay on cholesterol biosynthesis, the “effect on cholesterol synthesis” value is on record as “significant inhibition of cholesterol biosynthesis” and the activity at 20 µM was 50 ± 7.9%.

`CC(C)=CCC/C(C)=C/CC/C(C)=C/CNC(P(=O)(O)O)P(=O)(O)O` [compound 93]: the half-maximal inhibitory concentration (IC50) amounted to 19 nM on squalene synthetase [1] and 20 nM at squalene synthetase [2].

In the case of `CC(C)=CCC/C(C)=C/CC/C(C)=C/CNC(P(=O)(O)O)P(=O)(O)O` [compound 99], the IC50 on squalene synthetase [1] was determined as 6.9 nM; at squalene synthetase [2] it was 6.7 nM.

For `O=P(O)(O)C(NCCCCCCCCCSc1ncccn1)P(=O)(O)O` [compound 100], the IC50 on squalene synthetase [1] and on squalene synthetase [2] was 12 nM throughout.

For the compound `O=P(O)(O)C(NCCCCCCCCCCSc1ncccn1)P(=O)(O)O` [compound 101], the values for the IC50 on squalene synthetase [1] and at squalene synthetase [2] were 7.8 nM and 6.1 nM, respectively.

`O=P(O)(O)C(NCCCCCCCCCCCSc1ccccc1)P(=O)(O)O` [compound 102, trisodium 11-(phenylthio)undecylaminomethylenebisphosphonate]: the values for the half-inhibitory concentration (IC50) at squalene synthetase [1] and on squalene synthetase [2] were 3.1 nM and 3 nM, respectively.

Consider `CC(C)=CCC/C(C)=C/CC/C(C)=C/CC(P(=O)(O)O)P(=O)(O)O` [compound 106, trisodium (E,E)-farnesylmethylenebisphosphonate], for which the half-maximal inhibitory concentration (IC50) was found to be 62 nM at squalene synthetase [1] and 110 nM at squalene synthetase [2].

For the compound “(E,E)-farnesylaminomethylenebisphosphonic acid diethyl ester disodium salt [Compound No. 112]”, the results for the IC50 at squalene synthetase [1] and on squalene synthetase [2] were 3300 nM and 8200 nM, respectively.
